The text below walks through data of patent US20200031866A1, “PEPTIDE INHIBITORS OF SODIUM CHANNELS” (SPYRYX BIOSCIENCES, INC., priority 2016, published 2020).

This experiment has as its system tracheal mucus velocity (TMV) in sheep. As to the kind of experiment: CFTRinh-172-induced slowing of tracheal mucus velocity (TMV) in sheep. The class given is in vivo. The settings on record: for average TMV response between 5-12h: mean±se, 3 sheep/group, saline 50±0.5%. How it is done:
All procedures used were approved by the Mount Sinai Medical Center Animal Research Committee. The sheep were conscious and intubated for these studies. All instrumentation was performed under local anesthesia. After topical anesthesia of the nasal passages with 2% lidocaine solution, the sheep were nasally intubated, with an endotracheal tube […] in diameter (Mallinckrodt Med Inc., St. Louis, Mo.) shortened by 6 cm. The cuff of the tube was placed just below the vocal cords (verified by fluoroscopy) to allow for maximal exposure of the tracheal surface area. The inspired air was warmed and humidified using a Bennett Humidifier (Puritan-Bennett, Lenexa, Kans.). To minimize possible impairment of TMV caused by the inflated cuff, the endotracheal tube cuff remained deflated throughout the study except for the period of drug delivery.
TMV was measured in vivo by a roentgenographic technique. Between 8 and 10 radiopaque Teflon/bismuth trioxide disks, 1-mm diameter, 0.8-mm thick and 1.5-2 mg in weight, were insufflated onto the trachea. A modified suction catheter connected to a source of continuous compressed air at a flow of 3-4 L/min was used to introduce the particles via the endotracheal tube. The catheter remained within the endotracheal tube only during particle delivery, so that no contact with the tracheal surface is made. The cephalad-axial velocities of the individual disks were recorded on videotape from a portable image intensifier unit. Individual disk velocities were calculated by measuring the distance traveled by each disk during a 1-min observation period. For each run, the mean value of all individual disk velocities was calculated. A collar containing radiopaque reference markers of known length was worn by the sheep, and used as a standard to correct for magnification effects inherent in the fluoroscopy unit.
Aerosols were generated using an Airlife medication nebulizer. To control aerosol delivery a dosimetry system activated by a piston respirator (Harvard Apparatus Respiratory Pump, Holliston, Mass.) was used. The nebulizer was connected to a T-piece with one end attached to the respiratory pump and the other to the animal's tracheal tube. Nebulized aerosols were delivered directly into the trachea only during inspiration at a frequency of 20 breaths/min and at a tidal volume of 500 mL.
Ten (10) mg of CFTRinh-172 was dissolved in 0.3 mL of DMSO. The solution was vortexed and then 2.7 mL of ethanol was added bringing the final nebulized solution of CFTRinh to 10 mg/3 mL. […]
After a 10 minute period on the humidifier, a baseline TMV was obtained Immediately following the baseline, the sheep were challenged with an aerosol of 10 mg of CFTRinh. TMV was measured hourly for 4h. […] TMV was then measured from 5-12h following treatment. […]

Square brackets hold non-standard residues; d marks the D form. Peptide text beside a SMILES is read from it.

Regarding `CC[C@H](C)[C@H](NC(=O)[C@@H]1CCCN1C(=O)[C@H](CC(C)C)NC(=O)[C@@H](C)NC(=O)[C@@H](C)N)C(=O)N1CCC[C@H]1C(=O)N[C@@H](CC(C)C)C(=O)N[C@@H](CC(=O)O)C(=O)N[C@@H](CCC(N)=O)C(=O)N[C@H](C(=O)N[C@H](C)C(=O)N[C@H](C)C(N)=O)[C@@H](C)O` [SEQ ID NO:128, aaLPIPLDQTaa] (H-[dA][dA]LPIPLDQT[dA][dA]-NH2), the “average TMV response between 5-12h” value stood at 73.7±0.7% (1 mg/kg nebulized 4 h after 10 mg CFTRinh), 88.4±0.6% (2 mg/kg nebulized 4 h after 10 mg CFTRinh) and 103.0±0.6% (4 mg/kg nebulized 4 h after 10 mg CFTRinh). Further, under “reversal dose dependent, FIGS. 8A-8C”, the “reversal of CFTRinh-induced slowing of TMV” value is listed as “can reverse CFTRinh-induced slowing of TMV”.
